Legend:
[1] = test system: complement serum (guinea pig complement); experiment: Anticomplementary activity (inhibition of complement hemolysis of sensitized erythrocytes); type: biochemical; details: concentration inhibiting hemolysis of sensitized erythrocytes by 50%, 37° C., OD541
Experimental: The anticomplementary activity of the test compound was measured according to the test method as described in Experimental Immunochemistry, edited by E. A. Kabat and M. M. Mayer, 2nd ed., Springfield, III: C. C. Thomas (1961) pages 133-240.
A mixture of 1 ml of a 5-fold diluted solution of a Veronal buffer solution containing 1.5×10^-4 M Ca^2+ and 5×10^-4 M Mg^2+ and isotonic gelatin, 1.5 ml of complement serum (guinea pig complement) diluted 400 times with a physiological saline solution and 0.05 ml of a solution of a test compound (in this case, a test compound was dissolved in a physiological saline solution) was incubated at 37° C. for 30 minutes. To the said mixture there was added 0.4 ml of sensitized erythrocytes suspension containing 5×10^8 cells/ml and said mixture was incubated at 37° C. further for 60 minutes. After the incubation, the mixture was centrifuged in 3,000 rpm at 4° C. for 10 minutes.
The results are expressed in Table 1 as the concentration of each drugs inhibiting the hemolysis activity by 50% (IC50).

[2] = test system: blood clot from diluted fresh rabbit blood (urokinase, bovine thrombin); experiment: Fibrinolytic activity (modified diluted whole blood clot lysis time method); type: biochemical; details: test compound 300 μg/ml; time for complete lysis of diluted rabbit blood clot with urokinase, 37° C.
Experimental: The enhancement of the fibrinolytic activity of the test compounds was measured according to the modified diluted whole blood clot lysis time method described in
G. R. Fearnley, G. V. Balmforth, E. Fearnley: Clin. Sci. 16, 645-650 (1957) I. S. Chohan et al: Thrombos. Diathes. Haemorrh. 33, 226 (1975) and I. M. Nilsson et al: Handbook of Experimental Pharmacology 46, 110.
Fresh rabbit blood was diluted 20 times with 1/15M phosphate buffer (pH 7.4). A mixture of 400 μl of the diluted blood solution and 50 μl of a test compound (300 μg/ml) was incubated at 37° C. for 30 minutes. To the mixture were added 50 μl of urokinase solution (100 IU/ml) and 50 μl of bovine thrombin (100 N.I.H. u/ml). The clot produced in tubes was incubated at 37° C. for various periods of time. At the end of each incubation interval (15 minutes interval), 2.5 ml of distilled water was added to lyse erythrocytes released from clotted blood and absorbance (OD541) of the supernatant separated by centrifugation (3,000 rpm for 10 minutes) from the reaction mixture was measured. The fibrinolytic activity of the test compound was determined by the time in minutes needed for the complete lysis of the blood clot.
In the absence of a test compound, it took more than 2 hours to lyse blood clot in the above condition. However, blood clot was lysed in the presence of test compounds after 15 minutes (symbol: ++) and 45 minutes (symbol: +) incubation, respectively. Samples which were incapable of lysing blood clot within 1 hour incubation were expressed as symbol (-).

Row | Compound | Anticomplementary activity (IC50) [1] | Fibrinolytic activity [2]
1 | CCCCCCCCCCCCCCCC(=O)OC(CCCCCCCCCCCCCCC)CC(=O)N[C@@H](CCC(=O)O)C(=O)N[C@@H](CCC(=O)O)C(=O)O (stereo partly drawn) [19 (2), N-[N-(3-hexadecanoyloxyoctadecanoyl)-L-glutamyl]-L-glutamic acid] | 5.28 µg/mL | –
2 | CCCCCCCCCCCCCCCC(=O)OC(CCCCCCCCCCCCCCC)CC(=O)N[C@H](C(=O)N[C@@H](CCC(=O)O)C(=O)O)C(C)C (stereo partly drawn) [Example 3, N-[N-(3-hexadecanoyloxyoctadecanoyl)-L-valyl]-L-glutamic acid] | 1.89 µg/mL | ++ (blood clot was lysed in the presence of test compounds after 15 minutes (symbol: ++))
3 | CCCCCCCCCCCCCCCC(=O)OC(CCCCCCCCCCCCCC)C(=O)N[C@H](C(=O)N[C@@H](CCC(=O)O)C(=O)O)C(C)C (stereo partly drawn) [Example 6, N-[N-(2-hexadecanoyloxyhexadecanoyl)-L-valyl]-L-glutamic acid] | 0.49 µg/mL | + (45 minutes (symbol: +) incubation)
4 | CCCCCCCCC=CCCCCCCCC(=O)OC(CCCCCCCC=CCCCCCCCC)CC(=O)N[C@H](C(=O)N[C@@H](CCC(=O)O)C(=O)O)C(C)C (stereo partly drawn) [Example 7, N-[N-[3-(9-octadecenoyloxy)-11-eicosenoyl]-L-valyl]-L-glutamic acid] | 3.4 µg/mL | + (45 minutes (symbol: +) incubation)
5 | CCCCCCCCCCCCCCCC(=O)OC(CCCCCCCCCCCCCCC)CC(=O)N[C@H](C(=O)N[C@@H](CCC(=O)O)C(=O)O)[C@@H](C)O (stereo partly drawn) [Example 8 (2), N-[N-(3-hexadecanoyloxyoctadecanoyl)-L-threonyl]-L-glutamic acid] | 0.67 µg/mL | ++ (blood clot was lysed in the presence of test compounds after 15 minutes (symbol: ++))
6 | CCCCCCCCCCCCCCCC(=O)OC(CCCCCCCCCCCCCCC)CC(=O)NCCC(=O)N[C@H](C(=O)N[C@@H](CCC(=O)O)C(=O)O)[C@@H](C)O (stereo partly drawn) [Example 10, N-[N-[N-(3-hexadecanoyloxyoctadecanoyl)-β-alanyl]-L-threonyl]-L-glutamic acid] | 1.00 µg/mL | + (45 minutes (symbol: +) incubation)
7 | CCCCCCCCCCCCCCCC(=O)OC(CCCCCCCCCCCCCCC)CC(=O)NCCCCC(=O)N[C@@H](CCC(=O)O)C(=O)O (stereo partly drawn) [Example 14, N-[N-(3-hexadecanoyloxyoctadecanoyl)-5-aminopentanoyl]-L-glutamic acid] | 0.52 µg/mL | –
8 | CCCCCCCCCCCCCCCC(=O)OC(CCCCCCCCCCCCCCC)CC(=O)NCCC(=O)N[C@@H](CC(=O)O)C(=O)O (stereo partly drawn) [Example 18, N-[N-(3-hexadecanoyloxyoctadecanoyl)-β-alanyl]-L-aspartic acid] | 0.34 µg/mL | –
9 | CCCCCCCCCCCCCCCC(=O)OC(CCCCCCCCCCCCCCC)CC(=O)N[C@@H](CCCCN)C(=O)N[C@@H](CCC(=O)O)C(=O)O (stereo partly drawn) [Example 21, N-[N-(3-hexadecanoyloxyoctadecanoyl)-L-lysyl]-L-glutamic acid] | – | + (45 minutes (symbol: +) incubation)
10 | Br.Br.CCCCCCCCCCCCCCCC(=O)OC(CCCCCCCCCCCCCCC)CC(=O)N[C@@H](CCCCN)C(=O)N[C@@H](CCCCN)C(=O)O (stereo partly drawn) [Example 36, N-[N-(3-hexadecanoyloxyoctadecanoyl)-L-lysyl]-L-lysine dihydrogen bromide] | 9.5 µg/mL | –
11 | CCCCCCCCCCCCCCCC(=O)OC(CCCCCCCCCCCCCCC)CC(=O)N[C@H](C(=O)NCCS(=O)(=O)O)C(C)C (stereo partly drawn) [Example 37, N-[N-(3-hexadecanoyloxyoctadecanoyl)-L-valyl]taurine] | 0.13 µg/mL | + (45 minutes (symbol: +) incubation)
12 | CCCCCCCCCCCCCCCC(=O)OC(CCCCCCCCCCCCCCC)CC(=O)N[C@@H](CCC(=O)O)C(=O)N[C@H](C(=O)O)[C@@H](C)O (stereo partly drawn) [Example 39, N-[N-(3-hexadecanoyloxyoctadecanoyl)-L-glutamyl]-L-threonine] | 1.67 µg/mL | –
13 | CCCCCCCCCCCCCCCC(=O)OC(CCCCCCCCCCCCCCC)CC(=O)N[C@H](C(=O)N[C@H](C(=O)O)[C@@H](C)O)[C@@H](C)O (stereo partly drawn) [Example 42, N-[N-(3-hexadecanoyloxyoctadecanoyl)-L-threonyl]-L-threonine] | 0.06 µg/mL | ++ (blood clot was lysed in the presence of test compounds after 15 minutes (symbol: ++))
14 | CCCCCCCCCCCCCCCC(=O)OC(CCCCCCCCCCCCCCC)CC(=O)N[C@H](C(=O)N[C@@H](CCC(=O)OC)C(=O)OC)[C@@H](C)O (stereo partly drawn) [Example 43, dimethyl N-[N-(3-hexadecanoyloxyoctadecanoyl)-L-threonyl]-L-glutamate] | 30 µg/mL | –

From patent publication US4643990A, “N-acyl peptide, processes for their preparation and pharmaceutical compositions thereof” (Fujisawa Pharmaceutical Co., Ltd., priority 1982, dated 1987)
